Measurements taken from patent US11014908B2, “Chemical compounds” (Pfizer Inc., priority 2018, dated 2021).

Assays:
[1] = molecular target: T1, HbS (Homo sapiens, UniProt P68871+P69905, E7V); experiment: HbS polymerization assay (delay time); type: biochemical; settings: 0.15 mM HbS, n=3, vs DMSO; for Increase in DT for 25% HbS Occ: 0.075 mM compound
T1 construct: HbS was obtained from the blood of homozygous S/S patients; from tissue; host or cells: red blood cells of homozygous S/S patients
Description: This assay is used to determine the degree of inhibition of polymerization of HbS by compounds of the invention at varying degrees of HbS occupancy. The method used for the assay was adapted from that described in He and Russell (He, Z. and J. E. Russell, “A high-Throughput Microplate Method for Assessing Aggregation of Deoxygenated Hemoglobin S Heterotetramers in Vitro”, Anal Biochem 306(2): 349-352 (2002)).
Purified HbS was exchanged into 1.25 M potassium phosphate, pH=7.4 and concentrated to 1.1 mM. The hemoglobin concentration was fixed at 0.15 mM, and the HbS was diluted to the appropriate concentration using 1.25 M potassium phosphate, pH=7.4. The compound of the invention was added to 0.15 mM HbS in the following concentrations: […], 0.075 mM (25%) and 0.15 mM (50%). As these compounds are ditopic binders, the concentration was doubled to calculate the % coverage, ie. 0.15*0.5=0.075*2=0.15. DMSO concentrations were matched for all compound concentrations, as well as no-compound control, and HbA. Following incubation, 33.5 μL of HbS solution was added to each well of a Costar 96-well half area plate. To induce deoxygenation, 16.5 μL of 1 M sodium dithionite, prepared in 1.25 M potassium phosphate, was added to each well for a final assay concentration of 330 mM, and mixed thoroughly. Fifty μL of mineral oil was overlaid over the solution in each well to prevent reoxygenation, and the plate was placed at 4° C. for five minutes. Following cold incubation, the plates were placed in a spectrophotometer that had been equilibrated at 37° C., to initiate the polymerization process (temperature jump). The reaction was monitored at 700 nm for 40 minutes, with data points collected every 30 seconds. Four wells were used for each condition, and the data averaged at every point for analysis. Data was analyzed using Graph Pad Prism, and the data was fit to a Boltzman sigmoidal equation, in which V50 (t1/2) was taken as the delay time. The percent change was calculated using the DMSO as the initial delay time. Error in percent change was compounded using the V50 errors generated when fit to the Boltzman sigmoidal equation.
Delay in HbS polymerization, as measured by increasing delay time as a function of % HbS occupancy (% HbS Occ), is reported in Table 5 below as the increase in delay time (DT) for 10%, 25% and 50% HbS occupancy (n=3).

[2] = molecular target: T2, Hb in human whole blood (Homo sapiens, UniProt P68871+P69905); experiment: Whole blood oxygen affinity assay (Hemox analyzer), human blood; settings: 1 mM compound, 1 hour at 25 C, relative to DMSO
T2 construct: measured in human, dog, and mouse whole blood; from tissue; host or cells: human whole blood
Description: Whole Blood Oxygen Affinity Assay
Oxygen affinity is a marker of the ability of Hb to bind and release oxygen in solution. It can be determined in whole blood by measuring the percentage of oxygenated and deoxygenated Hb present at a given oxygen concentration. Oxygen affinity is expressed as the p50, the partial pressure of oxygen at which 50% of the Hb in solution has oxygen bound, or the p20, the partial pressure of oxygen at which 20% of the Hb in solution has oxygen bound.
To determine the effects of compounds of the invention on oxygen affinity the p50 and p20 were measured in human, dog, and mouse whole blood using a Hemeox Analyzer (TCS Scientific). The blood was spiked with a compound of the invention to a concentration of 1 mM and incubated for 1 hour at 25 C with constant rotation. A concentration of 1 mM of compound was selected to approximate 20% hemoglobin occupancy in whole blood. Controls with the same concentration of DMSO, but no compound were incubated in the same way at the same time. Following incubation, samples were immediately assayed for oxygen affinity using the Hemox analyzer. Fifty μL of blood sample was diluted into 5 mL of hemox buffer (TCS Scientific), which had been pre-incubated to 37 C. Following dilution, samples were loaded into the analysis chamber, and fully oxygenated using compressed air. Once samples had reached an pO2 of >150 torr, the measurement was initiated by switching to N2, and the percent oxyhemoglobin as a function of partial pressure was recorded. The p20 and p50 of each sample were recorded from the instrument readout. Data are reported as the percent (%) change relative to DMSO according to the following calculations: […]

[3] = Single dose study in sickle Townes mice: exposure in whole blood; type: in vivo; settings: male, Townes (sickle cell disease model), mouse, SCD mice, n=3
Procedure: (§1) In Vivo Studies Mouse Model
(§2) The effect of the compounds of the invention was evaluated in-male sickle Townes mice in a single dose study. Compounds of the invention were administered in amounts set out in Tables 7, 8 and 9 that follow by oral gavage. Control mice received vehicle. Blood (50 μL) was drawn at 0.5 h, 1 h, 4 h, 7 h, 10 h, and 24 h. To measure exposure in whole blood, 20 μL sample was used. Blood drawn at 0.5 h was also evaluated for cell sickling.

[4] = tested on: Red Blood Cells (RBCs) from treated animals; experiment: Single dose study in sickle Townes mice: RBC sickling under hypoxia; type: in vivo, mouse; settings: 0.5 h, SCD mice, n=3
Procedure: as §1, §2
Red Blood Cells (RBCs) from treated animals were diluted to ˜10^7 cells/mL with 300 μL Hemeox solution in a 24-well plate and incubated in a hypoxia chamber, 5% CO2 and 3% O2 for 4 h. Cells were then fixed at room temperature for 30 minutes in sickling fixative solution and stained with TER119 alexa 488 conjugated antibody (BioLegend) for 30 minutes at room temperature, washed and plated at 50,000 cells/well with 200 μL of hemox buffer (TCS Scientific). Data were visualized using Graph Pad Prism (Version 5). Results are expressed as mean±standard error of the mean (SEM). Statistical analysis was made using a non-parametric one-way analysis of variance (ANOVA) followed by a Dunnett's multiple comparison. Significance was accepted when p<0.01.

[5] = tested on: Townes SCD mice; experiment: Chronic dosing study (BID, 15 days) in Townes SCD mice; type: in vivo, mouse; settings: 200 mg/kg BID for 15 days, Townes SCD mice, vs vehicle; for sVCAM1, Change (decrease): ELISA
Procedure: Following 15 days of dosing, blood samples were collected from all animals to run in the Hemeox analyzer to generate oxygen affinity curves, complete blood analysis was performed using Idexx hematology Analyzer, and cell sickling assessed as described before. Soluble Vascular Adhesion Molecule 1 levels (sVCAM1) were assessed by Enzyme linked immunosorbent assay (ELISA) from R&D systems. Results are presented below in Tables 7, 8 and 9.

[6] = single dose 10 mg/kg oral gavage
[7] = single dose 40 mg/kg oral gavage
[8] = single dose 220 mg/kg oral gavage
[9] = single dose 490 mg/kg oral gavage
[10] = single dose 30 mg/kg oral gavage
[11] = single dose 100 mg/kg oral gavage
[12] = single dose 300 mg/kg oral gavage
[13] = single dose 900 mg/kg oral gavage

Increase in DT for 25% HbS Occ [1] [%]	Reduction in p20 (%) Human [2] [%]	Reduction in p50 (%) Human [2] [%]	Compound	sVCAM1, Change (decrease) [5] [% decrease]	Hb, Change (increase) [5] [% increase]	Hematocrit, Change (increase) [5] [% increase]	RBC sickling, Change (decrease) [5] [% decrease]	RBCs, Change (increase) [5] [% increase]	Reticulocytes, Change (decrease) [5] [% decrease]	p20, Change (decrease) [5] [% decrease]	p50, Change (decrease) [5] [% decrease]	also measured
70 ± 8	24 ± 19	12 ± 9	C[C@H](Oc1cc2cc(F)ccc2nc1N)c1nc(O)ccc1-n1cccn1 [Example 58, 6-{(1S)-1-[(2-amino-6-fluoroquinolin-3-yl)oxy]ethyl}-5-(1H-pyrazol-1-yl)pyridin-2-ol]	9.98 ± 7.1	42.4 ± 4.2	30.9 ± 0.7	37.8 ± 9.0	39.2 ± 9.3	54.7 ± 2.4	84.4 ± 2.6	53.7 ± 21.2	Increase in DT for 10% HbS Occ ([1]; 0.03 mM compound): 18 ± 5%; Increase in DT for 50% HbS Occ ([1]; 0.15 mM compound): 74 ± 21%; concentration at 0.5 h [3, 6]: 35.8 µM; concentration at 0.5 h [3, 7]: 285 µM; concentration at 0.5 h [3, 8]: 1450 µM; concentration at 0.5 h [3, 9]: 2870 µM; % Change in RBC Sickling [4, 6]: −6.2%; % Change in RBC Sickling [4, 7]: 4.6%; % Change in RBC Sickling [4, 8]: 50.8%; % Change in RBC Sickling [4, 9]: 48.3%
64 ± 6	25 ± 9	14 ± 10	C[C@H](Oc1cc2cc(F)cc(F)c2nc1N)c1cc(C(=O)O)ccc1-n1cccn1 [Example 21, 3-{(1S)-1-[(2-amino-6,8-difluoroquinolin-3-yl)oxy]ethyl}-4-(1H-pyrazol-1-yl)benzoic Acid]	6.57 ± 3.75	43.7 ± 9.83	29.1 ± 11.2	30.8 ± 14.5	44.6 ± 9.04	32.7 ± 9.37	76.1 ± 13.9	26.2 ± 9.7	concentration at 0.5 h [3, 10]: 14.7 µM; concentration at 0.5 h [3, 11]: 303 µM; concentration at 0.5 h [3, 12]: 1140 µM; concentration at 0.5 h [3, 13]: 1500 µM; % Change in RBC Sickling [4, 10]: 2.03%; % Change in RBC Sickling [4, 11]: −0.02%; % Change in RBC Sickling [4, 12]: 24.6%; % Change in RBC Sickling [4, 13]: 29.0%
